# Results taken from patent US20110086759A1, “CHEMICAL COMPOUNDS” (SYNGENTA CROP PROTECTION, INC., priority 2007, published 2011).
# Assays:
# Assay type in all cases: in vivo
# [1] = test system: Echinochloa crus-galli (ECHCG); assay: Pre-emergence biological efficacy, glasshouse pot test; conditions: 312 h, pre-emergence, 1,000 g/ha, evaluated after 13 days (100=total damage; 0=no damage), read-out: Percentage damage ECHCG
# Summary of the method: (§1)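 Damage rated 0–100 (100 = total kill) 13 days post-spray. Pots of standard soil were sown and sprayed after one day with test compound at 1000 or 250 g/ha in acetone/water (50:50) plus 0.5% Tween 20.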
# Solanum nigrum (SOLNI) [2] = assay: as above; conditions: 312 h, pre-emergence, 1,000 g/ha, evaluated after 13 days (100=total damage; 0=no damage), read-out: Percentage damage SOLNI
# Summary of the method: as §1
# Setaria faberi (SETFA) [3] = assay: as above; conditions: 312 h, pre-emergence, 1,000 g/ha, evaluated after 13 days (100=total damage; 0=no damage), read-out: Percentage damage SETFA
# Summary of the method: as §1
# [4] = test system: Alopecurus myosuroides (ALOMY); assay: as above; conditions: 312 h, pre-emergence, 1,000 g/ha, evaluated after 13 days (100=total damage; 0=no damage), read-out: Percentage damage ALOMY
# Summary of the method: as §1
# [5] = test system: Amaranthus retoflexus (AMARE); assay: as above; conditions: Amaranthus retroflexus, 312 h; pre-emergence, 1,000 g/ha, evaluated after 13 days (100=total damage; 0=no damage); read-out: Percentage damage AMARE
# Summary of the method: as §1
# [6] = test system: Ipomea hederaceae (IPOHE); assay: as above; conditions: Ipomoea hederacea, 312 h; pre-emergence, 1,000 g/ha, evaluated after 13 days (100=total damage; 0=no damage); read-out: Percentage damage IPOHE
# Summary of the method: as §1
# [7] = test system: Echinochloa crus-galli (ECHCG); assay: Post-emergence biological efficacy, glasshouse pot test; conditions: 312 h, post-emergence, 1,000 g/ha, evaluated after 13 days (100=total damage; 0=no damage), read-out: Percentage damage caused to weed species, ECHCG
# Summary of the method: (§2)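 Pot-grown weeds were sprayed 8 days after sowing with test compound in acetone/water (50:50) with 0.5% Tween 20 at 1000 or 250 g/ha. Glasshouse at 24/16° C day/night, 14 h light, 65% humidity. Damage scored 0-100 (100 = total damage) after 13 days.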
# Solanum nigrum (SOLNI) [8] = assay: as above; conditions: 312 h, post-emergence, 1,000 g/ha, evaluated after 13 days (100=total damage; 0=no damage), read-out: Percentage damage caused to weed species, SOLNI
# Summary of the method: as §2
# Setaria faberi (SETFA) [9] = assay: as above; conditions: 312 h, post-emergence, 1,000 g/ha, evaluated after 13 days (100=total damage; 0=no damage), read-out: Percentage damage caused to weed species, SETFA
# Summary of the method: as §2
# [10] = test system: Alopecurus myosuroides (ALOMY); assay: as above; conditions: 312 h, post-emergence, 1,000 g/ha, evaluated after 13 days (100=total damage; 0=no damage), read-out: Percentage damage caused to weed species, ALOMY
# Summary of the method: as §2
# [11] = test system: Amaranthus retoflexus (AMARE); assay: as above; conditions: Amaranthus retroflexus, 312 h; post-emergence, 1,000 g/ha, evaluated after 13 days (100=total damage; 0=no damage); read-out: Percentage damage caused to weed species, AMARE
# Summary of the method: as §2
# [12] = test system: Ipomea hederaceae (IPOHE); assay: as above; conditions: Ipomoea hederacea, 312 h; post-emergence, 1,000 g/ha, evaluated after 13 days (100=total damage; 0=no damage); read-out: Percentage damage caused to weed species, IPOHE
# Summary of the method: as §2
SMILES,pest or weed control at 1000 g/ha [1] [%],pest or weed control at 1000 g/ha (Solanum nigrum (SOLNI) [2]) [%],pest or weed control at 1000 g/ha (Setaria faberi (SETFA) [3]) [%],pest or weed control at 1000 g/ha [4] [%],pest or weed control at 1000 g/ha [5] [%],pest or weed control at 1000 g/ha [6] [%],pest or weed control at 1000 g/ha [7] [%],pest or weed control at 1000 g/ha (Solanum nigrum (SOLNI) [8]) [%],pest or weed control at 1000 g/ha (Setaria faberi (SETFA) [9]) [%],pest or weed control at 1000 g/ha [10] [%],pest or weed control at 1000 g/ha [11] [%],pest or weed control at 1000 g/ha [12] [%]
"COC(=O)c1nc(C2CC2)nc(NCc2ccc(OC(F)(F)F)cc2)c1Cl [Compound 4-83, 5-Chloro-2-cyclopropyl-6-methoxycarbonyl-4-(4-trifluoromethoxy-phenylmethyl-amino)pyrimidine]",0,40,10,0,60,50,60,100,90,20,100,100
"COC(=O)c1nc(C2CC2)nc(NCc2ccc(N)cc2)c1Cl [Compound 4-86, 4-(4-Aminophenyl-methylamino)-5-chloro-2-cyclopropyl-6-methoxycarbonyl-pyrimidine]",70,100,80,60,100,100,70,100,90,50,100,100
"COC(=O)c1nc(C2CC2)nc(NCc2ccc(N(C)C)cc2)c1Cl [Compound 4-87, 5-Chloro-2-cyclopropyl-4-(4-dimethylamino-phenylmethyl-amino)-6-methoxycarbonyl-pyrimidine]",90,100,90,90,100,100,60,100,100,60,100,100
"COC(=O)c1nc(C2CC2)nc(NCc2ccccc2N2CCOCC2)c1Cl [Compound 4-88, 5-Chloro-2-cyclopropyl-6-methoxycarbonyl-4-(2-morpholin-4-yl-phenylmethyl-amino)-pyrimidine]",50,70,20,40,70,100,60,80,60,50,100,80
"COC(=O)c1nc(C2CC2)nc(NCc2ccccc2[N+](=O)[O-])c1Cl [Compound 4-90, 5-Chloro-2-cyclopropyl-6-methoxycarbonyl-4-(2-nitrophenyl-methylamino)-pyrimidine]",60,100,80,50,100,100,80,100,100,50,100,100
"COC(=O)c1nc(C2CC2)nc(NCc2cccc([N+](=O)[O-])c2)c1Cl [Compound 4-91, 5-Chloro-2-cyclopropyl-6-methoxycarbonyl-4-(3-nitrophenyl-methylamino)-pyrimidine]",20,50,20,10,50,60,80,100,90,50,100,100
"COC(=O)c1nc(C2CC2)nc(NCc2ccc(S(N)(=O)=O)cc2)c1Cl [Compound 4-93, 4-(4-Aminosulphonyl-phenyl)methylamino-5-chloro-2-cyclopropyl-6-methoxycarbonyl-pyrimidine]",0,0,0,0,30,40,0,50,0,0,30,70
"COC(=O)c1ccc(CNc2nc(C3CC3)nc(C(=O)OC)c2Cl)cc1 [Compound 4-94, 5-Chloro-2-cyclopropyl-6-methoxycarbonyl-4-(4-methoxy-carbonylphenyl-methylamino)-pyrimidine]",10,80,10,10,70,50,10,90,30,10,100,100
"COC(=O)c1nc(C2CC2)nc(NCc2cccc(-c3ccccc3)c2)c1Cl [Compound 4-95, 5-Chloro-2-cyclopropyl-6-methoxycarbonyl-4-(3-phenylphenyl-methylamino)-pyrimidine]",10,30,10,10,60,30,60,80,60,20,90,100
"COC(=O)c1nc(C2CC2)nc(NCc2cccc(F)c2F)c1Cl [Compound 4-96, 5-Chloro-2-cyclopropyl-4-(2,3-difluorophenyl-methylamino)-6-methoxycarbonyl-pyrimidine]",20,60,30,10,60,50,80,100,90,20,100,100
"COC(=O)c1nc(C2CC2)nc(NCc2ccc(F)cc2F)c1Cl [Compound 4-97, 5-Chloro-2-cyclopropyl-4-(2,4-difluorophenyl-methylamino)-6-methoxycarbonyl-pyrimidine]",40,50,40,20,40,60,80,100,90,20,100,100
